Data from paper PMC11823646, “Population pharmacokinetics of caspofungin in critically ill patients receiving extracorporeal membrane oxygenation—an ASAP ECMO study” (Antimicrobial Agents and Chemotherapy, 2024).

How the values were obtained:
[1] = human, in vivo; cited from earlier work
Excerpt: It is challenging to ascertain the optimal dosing regimen for caspofungin based on MIC breakpoints. The European Committee on Antimicrobial Susceptibility Testing (EUCAST) MIC breakpoints have yet to be established for caspofungin against Candida spp. due to significant interlaboratory variation in MIC reporting ([18]). Until this problem is resolved, Candida isolates that are susceptible to anidulafungin and micafungin should also be considered susceptible to caspofungin.

[2] = parameters: method as in PMID 17660480, PMID 11850256; conditions: human, in vivo; cited from earlier work
[3] = human, in vivo; cited from earlier work; remark: listed apart in the source
[4] = Population pharmacokinetics of caspofungin in critically ill patients receiving ECMO; assay type: in vivo, human
Method: The present analysis is part of the ASAP ECMO study program that was conducted from November 2012 to November 2019 ([8]). The ASAP ECMO study was a prospective, open-labeled multicenter pharmacokinetic study performed in six ICUs across Australia, New Zealand, South Korea, and Switzerland. A detailed study protocol has been previously described elsewhere ([8], [9]), and as such, is only briefly outlined in this paper.
Patients were eligible for recruitment if they were adult (18–90 years old) ICU patients who were receiving caspofungin while undergoing ECMO therapy for cardiac and/or respiratory failure. Patients were excluded if they required massive blood transfusion (i.e., >50% of blood volume in the preceding 8 hours), received therapeutic plasma exchange in the preceding 24 hours, had bilirubin >150 µmol/L, were pregnant, or were known to be allergic to caspofungin.
Caspofungin was reconstituted and administered as an intermittent intravenous infusion in accordance with the standard administration protocol at each participating center. Caspofungin dosing regimens, ECMO modalities/configurations, and all other subsequent patient management (e.g., RRT application) were determined by the treating clinician in accordance with local clinical guidelines and practices.
Pharmacokinetic sampling was performed during a single dosing interval once the patient had been stabilized on ECMO. Blood samples were drawn from an existing arterial line and were collected into lithium-heparinized tubes. Blood samples were collected at 0, 0.25, 0.5, 0.75, 1, 1.5, 2, 3, 6, 8, 12, and 24 hours after commencement of infusion.
The blood samples were centrifuged at 3,000 × g for 10 minutes to obtain plasma, which was then frozen at –80°C and stored locally at participating sites. The frozen plasma samples were shipped on dry ice by a commercial courier company to the central bioanalysis laboratory at the University of Queensland Centre for Clinical Research (UQCCR) for bioanalysis.
Total caspofungin concentrations in plasma were measured by a validated ultra-high performance liquid chromatography method on a Nexera X2 system connected to a Shimadzu 8030 + triple quadrupole mass spectrometer (Shimadzu Corporation, Kyoto, Japan). Dicloxacillin was used as the internal standard. The assay was performed in batches, and samples were analyzed concurrently with calibration standards and quality-control replicates at high (18 mg/L), medium (3 mg/L), and low (0.6 mg/L) concentrations. The assay limit for caspofungin in plasma was 0.1 mg/L and linearity was established within a range of 0.1–20 mg/L. Precision and accuracy at three different concentrations were all within 12%. Bioanalysis methods were performed in accordance with the U.S. Food and Drug Administration’s guidance for industry on bioanalysis ([10]).
Plasma concentration-time data for caspofungin were analyzed using a nonlinear mixed-effect modeling approach in Monolix version 2021R2 (Lixoft, Antony, France) implementing the stochastic approximation expectation maximization (SAEM) algorithm. Plasma concentration-time data for caspofungin were fitted to one- and two-compartment disposition models with first-order elimination. Between-subject variability (BSV or ω) was described using an exponential model: […]

CC[C@H](C)C[C@H](C)CCCCCCCCC(=O)N[C@H]1C[C@@H](O)[C@@H](NCCN)NC(=O)[C@@H]2[C@@H](O)CCN2C(=O)[C@H]([C@H](O)CCN)NC(=O)[C@H]([C@H](O)[C@@H](O)c2ccc(O)cc2)NC(=O)[C@@H]2C[C@@H](O)CN2C(=O)[C@H]([C@@H](C)O)NC1=O [caspofungin]
dose demonstrated to be safe [1]: up to 200 mg/day | AUC0–24 exposure in healthy volunteers [2]: 98 µg·h/mL | AUC0–24 exposure reported in ICU patients [3]: 74 to 135 µg·h/mL | typical clearance in other studies [3]: 0.27 to 0.98 L/h | typical volume of distribution in other studies [3]: 6.19 to 20.91 L | impact of ECMO on caspofungin pharmacokinetics ([4]; ECMO duration, mode and flow rate tested as covariates, no significant effect): negligible impact | LBW effect on V, Estimate (%RSE) ([4]; exponent in V=Vpop × (LBW/58.9)^1.24, final model): 1.24 (23.3) | AUC(0-t) ([4]; human, plasma, 8 critically ill patients on ECMO, maintenance dose 50 or 70 mg daily IV, median, read-out: median AUC0–24 exposure): 115 µg·h/mL | CL, Estimate (%RSE) ([4]; typical population value, final one-compartment model with first-order elimination, 8 ECMO patients, 64 total plasma concentrations (UHPLC-MS/MS), IV infusion, LD 70 mg then 50 or 70 mg daily): 0.55 (11.9) L/h | V, Estimate (%RSE) ([4]; typical population value, final one-compartment model, LBW centred on 58.9 kg, 8 ECMO patients, 64 total plasma concentrations): 8.13 (7.15) L
